{"source": "paper PMC4856977", "about": "“Efficient enzymatic synthesis and dual-colour fluorescent labelling of DNA probes using long chain azido-dUTP and BCN dyes” (Nucleic Acids Research, 2016)", "key": {"[1]": {"biological_target": "T1, Klenow large fragment (Escherichia coli, UniProt P00582)", "T1 construct": "gene polA; large (Klenow) fragment of DNA polymerase I, without the N-terminal 5'-3' exonuclease domain; commercial (New England Biolabs)", "T1 sequence (P00582 324-928 limits assumed)": "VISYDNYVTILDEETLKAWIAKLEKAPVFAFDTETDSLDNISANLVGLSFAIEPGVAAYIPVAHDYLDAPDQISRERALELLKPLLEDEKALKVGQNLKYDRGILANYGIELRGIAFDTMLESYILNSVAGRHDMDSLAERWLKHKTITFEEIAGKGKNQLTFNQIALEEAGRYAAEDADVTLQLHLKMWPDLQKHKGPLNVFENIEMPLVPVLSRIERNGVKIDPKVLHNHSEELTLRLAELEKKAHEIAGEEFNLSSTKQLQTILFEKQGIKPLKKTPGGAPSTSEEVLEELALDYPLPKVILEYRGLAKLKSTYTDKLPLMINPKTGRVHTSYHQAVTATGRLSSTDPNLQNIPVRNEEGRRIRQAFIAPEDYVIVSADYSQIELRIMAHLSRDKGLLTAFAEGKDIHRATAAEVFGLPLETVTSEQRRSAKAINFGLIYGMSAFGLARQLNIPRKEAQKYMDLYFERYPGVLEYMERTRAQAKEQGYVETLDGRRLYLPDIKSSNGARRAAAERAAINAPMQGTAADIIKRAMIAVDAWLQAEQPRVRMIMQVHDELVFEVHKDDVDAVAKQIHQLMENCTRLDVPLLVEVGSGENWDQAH", "assay": "primer extension, denaturing PAGE and mass spectrometry", "format": "biochemical", "settings": "templates T1 and T2, primer P3; 37°C"}, "[2]": {"biological_target": "T2, Therminator II (Thermococcus sp. 9oN-7, UniProt Q56366, D141A/E143A/Y409V/A485L, form not given)", "T2 construct": "gene pol; commercial engineered variant of 9°N DNA polymerase (New England Biolabs)", "T2 sequence (Q56366 whole entry D141A/E143A/Y409V/A485L, form open)": "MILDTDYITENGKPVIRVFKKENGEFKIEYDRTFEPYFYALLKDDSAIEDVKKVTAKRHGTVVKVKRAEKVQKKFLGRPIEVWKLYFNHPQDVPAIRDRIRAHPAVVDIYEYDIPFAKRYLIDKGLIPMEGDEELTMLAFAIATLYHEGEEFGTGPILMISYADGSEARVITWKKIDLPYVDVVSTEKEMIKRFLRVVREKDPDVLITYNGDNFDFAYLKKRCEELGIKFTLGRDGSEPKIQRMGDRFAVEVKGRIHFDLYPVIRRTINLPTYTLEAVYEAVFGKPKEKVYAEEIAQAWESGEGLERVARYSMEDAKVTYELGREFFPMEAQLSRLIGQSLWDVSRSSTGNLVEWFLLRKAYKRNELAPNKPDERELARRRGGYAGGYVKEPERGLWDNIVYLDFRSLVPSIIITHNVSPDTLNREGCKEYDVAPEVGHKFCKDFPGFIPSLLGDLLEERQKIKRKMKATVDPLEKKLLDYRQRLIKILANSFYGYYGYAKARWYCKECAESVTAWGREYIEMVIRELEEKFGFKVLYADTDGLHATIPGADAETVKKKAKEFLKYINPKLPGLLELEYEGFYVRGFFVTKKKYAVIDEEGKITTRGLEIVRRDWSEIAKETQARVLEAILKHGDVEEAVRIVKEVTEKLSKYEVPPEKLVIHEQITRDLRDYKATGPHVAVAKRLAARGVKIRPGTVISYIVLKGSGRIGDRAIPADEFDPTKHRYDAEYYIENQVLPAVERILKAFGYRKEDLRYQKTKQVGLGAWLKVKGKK", "assay": "primer extension, denaturing PAGE and mass spectrometry", "format": "biochemical", "settings": "templates T1 and T2, primer P3; 72°C"}}, "data": [{"smiles": "[N-]=[N+]=NCCCCCC(=O)NCC#Cc1cn([C@H]2C[C@H](O)[C@@H](COP(=O)(O)OP(=O)(O)OP(=O)(O)O)O2)c(=O)[nH]c1=O", "note": "[AHP dUTP]", "values": [{"measurement": "primer extension, denaturing PAGE and mass spectrometry", "setting": "[1]", "result": "all four polymerases successfully incorporate AHP dUTP in the presence of templates T1 and T2"}, {"measurement": "primer extension, denaturing PAGE and mass spectrometry", "setting": "[2]", "result": "all four polymerases successfully incorporate AHP dUTP in the presence of templates T1 and T2"}]}]}
